Assays:
[1] = molecular target: T1, Cyclin-dependent kinase 11A (Homo sapiens) (UniProt Q9UQ88); conditions: at 10 µM
T1 sequence (whole entry): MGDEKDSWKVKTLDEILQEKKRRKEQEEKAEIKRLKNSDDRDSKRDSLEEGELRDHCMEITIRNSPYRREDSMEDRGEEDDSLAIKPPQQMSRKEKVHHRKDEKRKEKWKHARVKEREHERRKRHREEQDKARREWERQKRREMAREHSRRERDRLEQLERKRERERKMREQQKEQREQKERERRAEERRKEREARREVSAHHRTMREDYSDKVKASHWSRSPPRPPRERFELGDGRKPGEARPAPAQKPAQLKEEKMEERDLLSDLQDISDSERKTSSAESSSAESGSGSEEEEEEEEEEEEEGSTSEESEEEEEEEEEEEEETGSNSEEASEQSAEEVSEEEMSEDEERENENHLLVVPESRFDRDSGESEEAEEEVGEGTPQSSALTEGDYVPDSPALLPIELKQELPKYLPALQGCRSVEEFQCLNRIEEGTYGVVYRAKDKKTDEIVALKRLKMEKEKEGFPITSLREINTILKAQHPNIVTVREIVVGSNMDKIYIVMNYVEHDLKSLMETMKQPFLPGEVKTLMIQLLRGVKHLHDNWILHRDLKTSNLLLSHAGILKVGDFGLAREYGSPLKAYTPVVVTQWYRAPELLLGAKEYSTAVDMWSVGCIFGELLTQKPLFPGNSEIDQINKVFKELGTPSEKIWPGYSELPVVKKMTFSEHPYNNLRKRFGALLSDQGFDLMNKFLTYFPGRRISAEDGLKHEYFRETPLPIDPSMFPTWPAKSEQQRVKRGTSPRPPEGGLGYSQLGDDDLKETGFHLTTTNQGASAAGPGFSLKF

[2] = molecular target: Histone-lysine N-methyltransferase PRDM9 (Homo sapiens) (UniProt Q9NQV7); experiment: Selectivity interaction (Methyltransferase screen (radiometric assays, panel of 8 PRMTs, 21 protein lysine methyltransferases, 3 DNA methyltransferases, and one RNA methyltransferase)) EUB0000272b PRDM9
Histone-lysine N-methyltransferase PRDM9 (Homo sapiens), sequence (Q9NQV7 whole entry): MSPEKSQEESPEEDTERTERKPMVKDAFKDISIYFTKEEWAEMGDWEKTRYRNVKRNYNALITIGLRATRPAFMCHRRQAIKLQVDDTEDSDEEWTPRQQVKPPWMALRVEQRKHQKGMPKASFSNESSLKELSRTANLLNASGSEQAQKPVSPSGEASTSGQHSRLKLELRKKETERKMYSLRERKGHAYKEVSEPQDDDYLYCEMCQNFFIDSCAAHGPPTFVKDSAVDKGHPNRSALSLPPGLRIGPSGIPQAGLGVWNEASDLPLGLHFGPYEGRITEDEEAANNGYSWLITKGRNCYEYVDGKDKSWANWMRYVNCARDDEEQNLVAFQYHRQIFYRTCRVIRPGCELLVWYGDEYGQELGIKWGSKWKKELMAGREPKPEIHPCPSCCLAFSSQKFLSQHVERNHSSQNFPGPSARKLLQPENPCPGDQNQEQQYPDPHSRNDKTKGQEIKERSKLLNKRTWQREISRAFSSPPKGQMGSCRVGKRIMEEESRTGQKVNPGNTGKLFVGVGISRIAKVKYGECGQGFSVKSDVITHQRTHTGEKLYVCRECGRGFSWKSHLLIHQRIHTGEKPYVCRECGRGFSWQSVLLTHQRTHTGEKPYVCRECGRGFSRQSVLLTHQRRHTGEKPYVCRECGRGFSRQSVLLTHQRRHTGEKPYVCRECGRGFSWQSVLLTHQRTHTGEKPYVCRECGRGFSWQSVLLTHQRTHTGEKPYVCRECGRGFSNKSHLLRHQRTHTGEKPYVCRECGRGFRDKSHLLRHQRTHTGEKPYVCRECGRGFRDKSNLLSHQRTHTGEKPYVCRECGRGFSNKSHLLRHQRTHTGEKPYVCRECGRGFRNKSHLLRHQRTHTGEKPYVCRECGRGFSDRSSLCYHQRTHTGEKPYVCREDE

[3] = molecular target: Receptor-interacting serine/threonine-protein kinase 2 (Homo sapiens, UniProt O43353); experiment: Selectivity interaction (KinomeScan (DiscoverX)) EUB0000092b RIPK2; conditions: at 10 µM
[4] = molecular target: Phosphatidylinositol 4,5-bisphosphate 3-kinase catalytic subunit beta isoform (Homo sapiens) (UniProt P42338); experiment: Selectivity interaction (KinomeScan (DiscoverX)) EUB0000655a PIK3CB; conditions: at 10 µM
[5] = molecular target: T2, Bone morphogenetic protein receptor type-2 (Homo sapiens) (UniProt Q13873); experiment: Selectivity interaction (KinomeScan (DiscoverX)) EUB0001079a BMPR2; conditions: at 1 µM
T2 sequence (whole entry): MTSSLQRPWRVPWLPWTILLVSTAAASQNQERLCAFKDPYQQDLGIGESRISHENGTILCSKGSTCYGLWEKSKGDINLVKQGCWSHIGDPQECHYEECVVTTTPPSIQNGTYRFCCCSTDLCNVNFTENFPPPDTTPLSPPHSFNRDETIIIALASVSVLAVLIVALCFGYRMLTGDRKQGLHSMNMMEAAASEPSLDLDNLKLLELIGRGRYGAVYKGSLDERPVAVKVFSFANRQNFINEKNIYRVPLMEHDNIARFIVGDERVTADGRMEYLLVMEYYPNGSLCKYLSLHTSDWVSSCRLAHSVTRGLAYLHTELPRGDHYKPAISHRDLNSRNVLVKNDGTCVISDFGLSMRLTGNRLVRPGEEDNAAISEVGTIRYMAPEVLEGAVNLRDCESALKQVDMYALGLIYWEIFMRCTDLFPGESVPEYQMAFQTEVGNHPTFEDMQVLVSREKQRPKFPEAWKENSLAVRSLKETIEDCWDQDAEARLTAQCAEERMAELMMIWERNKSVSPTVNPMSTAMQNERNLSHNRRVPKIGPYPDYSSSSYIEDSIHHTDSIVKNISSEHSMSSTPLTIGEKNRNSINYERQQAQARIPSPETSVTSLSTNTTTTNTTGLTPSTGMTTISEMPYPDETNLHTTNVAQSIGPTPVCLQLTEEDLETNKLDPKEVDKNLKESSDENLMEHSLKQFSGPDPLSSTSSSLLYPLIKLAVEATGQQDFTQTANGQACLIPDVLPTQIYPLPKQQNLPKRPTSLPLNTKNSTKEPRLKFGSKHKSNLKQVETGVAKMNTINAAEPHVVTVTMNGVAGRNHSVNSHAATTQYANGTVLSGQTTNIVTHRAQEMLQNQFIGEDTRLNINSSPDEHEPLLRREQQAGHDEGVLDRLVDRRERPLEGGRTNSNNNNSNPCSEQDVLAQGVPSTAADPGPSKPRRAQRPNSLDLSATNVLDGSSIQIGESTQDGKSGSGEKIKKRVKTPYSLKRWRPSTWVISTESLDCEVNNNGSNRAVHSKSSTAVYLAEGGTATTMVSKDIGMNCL

[6] = molecular target: Platelet-derived growth factor receptor alpha (Homo sapiens, UniProt P16234); experiment: Selectivity interaction (KinomeScan (DiscoverX)) EUB0000666a PDGFRA; conditions: at 10 µM
[7] = molecular target: Serine/threonine-protein kinase 10 (Homo sapiens) (UniProt O94804); conditions: at 10 µM
[8] = molecular target: BDNF/NT-3 growth factors receptor (Homo sapiens) (UniProt Q16620); experiment: Selectivity interaction (KinomeScan (DiscoverX)) EUB0000045b NTRK2
BDNF/NT-3 growth factors receptor (Homo sapiens), sequence (Q16620 32-822 limits assumed): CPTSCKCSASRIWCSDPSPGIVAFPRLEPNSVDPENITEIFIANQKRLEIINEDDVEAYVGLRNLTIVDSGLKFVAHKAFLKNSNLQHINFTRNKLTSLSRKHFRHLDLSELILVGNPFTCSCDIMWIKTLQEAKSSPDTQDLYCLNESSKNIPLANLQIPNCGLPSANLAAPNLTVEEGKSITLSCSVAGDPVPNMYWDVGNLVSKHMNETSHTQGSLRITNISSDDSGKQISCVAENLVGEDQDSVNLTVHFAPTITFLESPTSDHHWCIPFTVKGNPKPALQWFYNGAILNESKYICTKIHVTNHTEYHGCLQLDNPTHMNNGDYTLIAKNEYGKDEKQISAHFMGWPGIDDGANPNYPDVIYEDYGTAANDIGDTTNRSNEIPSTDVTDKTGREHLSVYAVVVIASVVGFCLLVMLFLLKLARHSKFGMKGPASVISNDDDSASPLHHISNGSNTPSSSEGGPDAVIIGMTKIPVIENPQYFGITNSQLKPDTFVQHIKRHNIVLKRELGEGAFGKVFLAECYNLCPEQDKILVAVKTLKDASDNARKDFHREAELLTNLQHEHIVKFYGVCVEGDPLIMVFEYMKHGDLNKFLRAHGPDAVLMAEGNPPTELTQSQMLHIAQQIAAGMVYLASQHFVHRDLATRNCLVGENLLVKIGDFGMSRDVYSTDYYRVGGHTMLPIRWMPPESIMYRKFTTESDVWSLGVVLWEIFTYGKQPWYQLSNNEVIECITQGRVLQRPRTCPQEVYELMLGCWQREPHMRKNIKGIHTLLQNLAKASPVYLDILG

[9] = molecular target: Phosphatidylinositol 4,5-bisphosphate 3-kinase catalytic subunit alpha isoform (Homo sapiens) (UniProt P42336); experiment: (§1) Selectivity interaction (Ambit KINOMEscan and KiNATiv profiling in Jurkat cells) EUB0000090b PIK3CA; type: cell-based; conditions: at 1 µM
[10] = tested on: Phosphatidylinositol 4,5-bisphosphate 3-kinase catalytic subunit alpha isoform (Homo sapiens), P42336 [C420R]; experiment: as §1; type: cell-based; conditions: at 1 µM
Phosphatidylinositol 4,5-bisphosphate 3-kinase catalytic subunit alpha isoform (Homo sapiens), P42336 [C420R], sequence (P42336 whole entry C420R, canonical isoform): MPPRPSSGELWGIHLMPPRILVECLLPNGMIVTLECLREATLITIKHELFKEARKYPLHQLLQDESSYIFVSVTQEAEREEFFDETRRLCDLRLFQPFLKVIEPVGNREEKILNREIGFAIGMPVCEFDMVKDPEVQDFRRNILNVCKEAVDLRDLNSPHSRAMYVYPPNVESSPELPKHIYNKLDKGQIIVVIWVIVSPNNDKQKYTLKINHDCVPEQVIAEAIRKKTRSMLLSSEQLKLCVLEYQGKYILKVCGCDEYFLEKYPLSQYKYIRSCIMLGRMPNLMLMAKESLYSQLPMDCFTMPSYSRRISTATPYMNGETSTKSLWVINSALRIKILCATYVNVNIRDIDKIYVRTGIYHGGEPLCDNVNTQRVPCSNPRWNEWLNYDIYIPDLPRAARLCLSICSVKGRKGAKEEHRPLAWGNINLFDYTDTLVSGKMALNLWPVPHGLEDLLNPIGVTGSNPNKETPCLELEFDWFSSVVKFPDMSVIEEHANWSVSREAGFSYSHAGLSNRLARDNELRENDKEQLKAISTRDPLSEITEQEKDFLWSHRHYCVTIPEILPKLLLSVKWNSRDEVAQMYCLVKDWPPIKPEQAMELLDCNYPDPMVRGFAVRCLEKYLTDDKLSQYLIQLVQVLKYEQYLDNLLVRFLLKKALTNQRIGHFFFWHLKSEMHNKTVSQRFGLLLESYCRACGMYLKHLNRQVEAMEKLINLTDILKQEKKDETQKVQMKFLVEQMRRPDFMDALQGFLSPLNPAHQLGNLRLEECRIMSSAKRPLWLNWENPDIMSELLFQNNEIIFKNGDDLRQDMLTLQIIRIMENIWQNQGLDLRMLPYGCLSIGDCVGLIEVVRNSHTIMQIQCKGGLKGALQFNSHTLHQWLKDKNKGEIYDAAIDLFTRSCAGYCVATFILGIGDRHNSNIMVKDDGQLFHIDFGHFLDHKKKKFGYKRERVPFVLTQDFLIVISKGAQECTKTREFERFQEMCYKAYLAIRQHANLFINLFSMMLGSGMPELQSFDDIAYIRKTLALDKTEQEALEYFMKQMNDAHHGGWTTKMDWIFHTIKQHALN

[11] = tested on: Phosphatidylinositol 4,5-bisphosphate 3-kinase catalytic subunit alpha isoform (Homo sapiens), P42336 [E542K]; experiment: as §1; type: cell-based; conditions: at 1 µM
[12] = tested on: Phosphatidylinositol 4,5-bisphosphate 3-kinase catalytic subunit alpha isoform (Homo sapiens), P42336 [E545A]; experiment: as §1; type: cell-based; conditions: at 1 µM
[13] = tested on: Phosphatidylinositol 4,5-bisphosphate 3-kinase catalytic subunit alpha isoform (Homo sapiens), P42336 [E545K]; experiment: as §1; type: cell-based; conditions: at 1 µM
Phosphatidylinositol 4,5-bisphosphate 3-kinase catalytic subunit alpha isoform (Homo sapiens), P42336 [E545K], sequence (P42336 whole entry E545K, canonical isoform): as the sequence (P42336 whole entry C420R, canonical isoform) above, with R420C, E545K counted along it

[14] = tested on: Phosphatidylinositol 4,5-bisphosphate 3-kinase catalytic subunit alpha isoform (Homo sapiens), P42336 [H1047L]; experiment: as §1; type: cell-based; conditions: at 1 µM
[15] = tested on: Phosphatidylinositol 4,5-bisphosphate 3-kinase catalytic subunit alpha isoform (Homo sapiens), P42336 [H1047Y]; experiment: as §1; type: cell-based; conditions: at 1 µM
[16] = tested on: Phosphatidylinositol 4,5-bisphosphate 3-kinase catalytic subunit alpha isoform (Homo sapiens), P42336 [I800L]; experiment: as §1; type: cell-based; conditions: at 1 µM
Phosphatidylinositol 4,5-bisphosphate 3-kinase catalytic subunit alpha isoform (Homo sapiens), P42336 [I800L], sequence (P42336 whole entry I800L, canonical isoform): as the sequence (P42336 whole entry C420R, canonical isoform) above, with R420C, I800L counted along it

[17] = tested on: Phosphatidylinositol 4,5-bisphosphate 3-kinase catalytic subunit alpha isoform (Homo sapiens), P42336 [M1043I]; experiment: as §1; type: cell-based; conditions: at 1 µM
[18] = tested on: Phosphatidylinositol 4,5-bisphosphate 3-kinase catalytic subunit alpha isoform (Homo sapiens), P42336 [Q546K]; experiment: as §1; type: cell-based; conditions: at 1 µM

With `CCN(CC)CCCCNc1ncc2cc(-c3cc(OC)cc(OC)c3)c(NC(=O)NC(C)(C)C)nc2n1` the % of control [1] was 100%.

`Cc1cc(C)cc([C@H]2c3cc(C)ccc3NC(=O)CN2C(=O)c2ccc(Br)s2)c1` was tested, and the % of activity ([2]; at 1 µM) was 98.7% and the % of activity ([2]; at 10 µM) was 96.3%.

With `CCC(=O)N1CCN(c2ccc(-n3c(=O)ccc4cnc5ccc(-c6cnc7ccccc7c6)cc5c43)cc2C(F)(F)F)CC1` the % of control [3] was 44%.

`CN(C)CCOc1ccc(-c2nc(-c3ccncc3)c(-c3ccc4c(c3)CC/C4=N\O)[nH]2)cc1` showed a % of control [4] of 100%.

Compound `Nc1cnc(N2CCc3cc(S(=O)(=O)Nc4c(F)cc(Cl)cc4F)cc(N4CCCC4=O)c32)nc1` [TP-020n] has a % of control [5] of 100%.

`O=C(NOC[C@H](O)CO)c1ccc(F)c(F)c1Nc1ccc(I)cc1F` was tested, and the % of control [6] was 96%.

For `COCC(=O)NC/C=C/c1ccc2ncnc(Nc3ccc(Oc4ccc(C)nc4)c(C)c3)c2c1` [CP-724714], the % of control [7] was 4.2%.

Compound `C=CC(=O)Nc1cc(-n2c(=O)ccc3cnc4ccc(-c5ccc(NS(C)(=O)=O)cc5)cc4c32)ccc1C` has a % of control ([8]; at 1 µM) of 62% and a % of control ([8]; at 10 µM) of 78%.

`CN(C)C/C=C/C(=O)Nc1ccc(C(=O)N2CCCC(Nc3ncc(Cl)c(-c4c[nH]c5ccccc45)n3)C2)cc1` (stereo not given) gave a % of control [9] of 92%, a % of control [10] of 87% and a % of control [11] of 93%. For the same compound, the % of control [12] was 83%, the % of control [13] was 99% and the % of control [14] was 100%. The % of control [15] was 95%, the % of control [16] was 89% and the % of control [17] was 100%. The % of control [18] was 98%.
